In ChEMBL document CHEMBL1148772, “Inhibition of Mycobacterium tuberculosis, Mycobacterium bovis, and Mycobacterium avium by novel dideoxy nucleosides” (J Med Chem, 2007) one finds inhibition and MIC90 data, which are given here for 32 compounds.

What all share (type): functional
Settings in all cases: variant bovis BCG

Assay [1] relates to Mycobacterium tuberculosis. The experiment in a line: Antimycobacterial activity against Mycobacterium bovis BCG at 100 uM by microplate alamar blue assay. On the technique in general: Resazurin is reduced to fluorescent resorufin, in cell work by metabolically active cells.
Assay [2] has as its system Mycobacterium tuberculosis. Put plainly: Antimycobacterial activity against Mycobacterium bovis BCG at 10 uM by microplate alamar blue assay.
The test system of assay [3] is Mycobacterium tuberculosis. Put plainly: Antimycobacterial activity against Mycobacterium bovis BCG by microplate alamar blue assay.
Assay [4] deals with Mycobacterium tuberculosis. Put plainly: Antimycobacterial activity against Mycobacterium bovis BCG at 50 uM by microplate alamar blue assay.
The test system of assay [5] is Mycobacterium tuberculosis. The experiment in a line: Antimycobacterial activity against Mycobacterium bovis BCG at 1 uM by microplate alamar blue assay.

Values after ≈ are worked out from the molar mass of the structure shown.

On to `Nc1nc(=O)n([C@H]2CC[C@@H](CO)O2)cc1Br`, for which, in assay [1], 100 µM produced 70% inhibition. Besides, 10 µM produced 50% inhibition in assay [2].
For `CCCCCCCCCC#Cc1cn([C@H]2CC[C@@H](CO)O2)c(=O)[nH]c1=O`, the MIC90 in assay [3] came out at 1 µg/mL (≈ 2.76 µM). This compound also gave an inhibition at 100 µM in assay [1] of 100%. In addition, 50 µM produced 100% inhibition in assay [4]. In assay [2], this compound displayed an inhibition at 10 µM of 100%. In addition, in assay [5], 1 µM produced 80% inhibition.
Turning to `CCCCCCCCCCCC#Cc1cn([C@H]2CC[C@@H](CO)O2)c(=O)[nH]c1=O`, the MIC90 in assay [3] came out at 1 µg/mL (≈ 2.56 µM). Moreover, 100 µM produced 100% inhibition in assay [1]. The inhibition at 50 µM in assay [4] was determined as 100%. In assay [2], this compound returned an inhibition at 10 µM of 100%. Further, the inhibition at 1 µM in assay [5] stood at 60%.
`O=c1[nH]c(=O)n([C@H]2CC[C@@H](CO)O2)cc1C#Cc1ccccc1` came in with an inhibition at 100 µM in assay [1] of 25%. The compound also displayed an inhibition at 50 µM in assay [4] of 25%.
`O=c1[nH]c(=O)n([C@H]2CC[C@@H](CO)O2)cc1Br` had an inhibition at 100 µM in assay [1] of 0%.
`CCCC#Cc1cn([C@H]2CC[C@@H](CO)O2)c(=O)[nH]c1=O`: in assay [1], at 100 µM the inhibition was 50%.
Same read-out and setting: under `Nc1ncnc2c1ncn2[C@H]1CC[C@@H](CO)O1` stands 0%; under `CC(=O)OC[C@@H]1CC[C@H](n2ccc(=O)[nH]c2=O)O1`, 0%; under `O=c1[nH]c(=O)n([C@H]2CC[C@@H](CO)O2)cc1Cl`, 0%.
In the case of `CCCc1ccc(C#Cc2cn([C@H]3C[C@H](F)[C@@H](CO)O3)c(=O)[nH]c2=O)cc1`, in assay [3], the MIC90 is 50 µg/mL (≈ 134 µM). The inhibition at 100 µM in assay [1] was 100%. Moreover, in assay [4], the inhibition at 50 µM was 100%. For the same compound, in assay [2], the inhibition at 10 µM amounted to 50%.
In assay [3], `CCCCCCCCCCCCC#Cc1cn(C2CC(F)C(CO)O2)c(=O)[nH]c1=O` (stereo not drawn) returned an MIC90 of 1 µg/mL (≈ 2.37 µM). Also, in assay [1], the inhibition at 100 µM worked out at 100%. In assay [4], testing at 50 µM gave an inhibition of 100%. The inhibition at 10 µM in assay [2] amounted to 100%.
In turn, `CCSc1nc(N)nc2c1ncn2[C@H]1CC[C@@H](CO)O1` had an MIC90 in assay [3] of 10 µg/mL (≈ 33.9 µM). The compound further had an inhibition at 100 µM in assay [1] of 100%. The compound further showed an inhibition at 50 µM in assay [4] of 100%. The compound also registered an inhibition at 10 µM in assay [2] of 40%.
Compound `CC(=O)OC[C@@H]1CC[C@H](n2cc(Cl)c(=S)[nH]c2=O)O1` returned an MIC90 in assay [3] of 50 µg/mL (≈ 164 µM). The same compound displayed an inhibition at 100 µM in assay [1] of 100%. The same compound came in with an inhibition at 50 µM in assay [4] of 70%.
The compound `CCCCCC#Cc1cn([C@H]2C[C@H](F)[C@@H](CO)O2)c(=O)[nH]c1=O` showed an MIC90 in assay [3] of 50 µg/mL (≈ 154 µM). The inhibition at 100 µM in assay [1] is 100%. The same compound had an inhibition at 50 µM in assay [4] of 50%. This compound displayed an inhibition at 10 µM in assay [2] of 50%.
`CCCCCCCCC#Cc1cn([C@H]2C[C@H](F)[C@@H](CO)O2)c(=O)[nH]c1=O`: the MIC90 in assay [3] is 10 µg/mL (≈ 27.3 µM). Moreover, in assay [1], the inhibition at 100 µM turned out to be 100%. The compound further registered an inhibition at 50 µM in assay [4] of 100%. Moreover, the inhibition at 10 µM in assay [2] is 60%.
Compound `CCCCCCCCCCC#Cc1cn([C@H]2C[C@H](F)[C@@H](CO)O2)c(=O)[nH]c1=O` displayed an MIC90 in assay [3] of 10 µg/mL (≈ 25.3 µM). Testing at 100 µM in assay [1] gave an inhibition of 100%. This compound also had an inhibition at 50 µM in assay [4] of 100%. For the same compound, in assay [2], 10 µM produced 75% inhibition.
In assay [1], `N#Cc1cn(C2CCC(CO)O2)c2ncnc(N)c12` (stereo not drawn) registered an inhibition at 100 µM of 50%. In assay [4], this compound returned an inhibition at 50 µM of 40%.
Regarding `CCCCCCCCCCCC#Cc1cn([C@H]2C[C@H](F)[C@@H](CO)O2)c(=O)[nH]c1=O`, in assay [3], the MIC90 turned out to be 10 µg/mL (≈ 24.5 µM). For the same compound, the inhibition at 100 µM in assay [1] was determined as 100%. The compound also registered an inhibition at 50 µM in assay [4] of 100%. Also, the inhibition at 10 µM in assay [2] turned out to be 75%.
In assay [3], `CCCCCCCCC#Cc1cn([C@H]2CC[C@@H](CO)O2)c(=O)[nH]c1=O` displayed an MIC90 of 1 µg/mL (≈ 2.87 µM). Moreover, in assay [1], the inhibition at 100 µM was 100%. Also, the inhibition at 50 µM in assay [4] was determined as 100%. Also, testing at 10 µM in assay [2] gave an inhibition of 100%. For the same compound, in assay [5], the inhibition at 1 µM is 50%.
`Nc1nc(=O)n([C@H]2CC[C@@H](CO)O2)cc1I` returned an inhibition at 100 µM in assay [1] of 0%.
Still for that read-out and setting: then `CC(=O)OC[C@@H]1CC[C@H](n2cc(Cl)c(=O)[nH]c2=O)O1`, with 0%.
In the case of `Cc1cn([C@H]2CC[C@@H](CO)O2)c(=O)nc1N`, 100 µM produced 50% inhibition in assay [1]. Also, testing at 50 µM in assay [4] gave an inhibition of 50%. The inhibition at 10 µM in assay [2] turned out to be 50%.
For the compound `NC(=O)c1cn([C@H]2CC[C@@H](CO)O2)c2ncnc(N)c12`, in assay [1], the inhibition at 100 µM was 25%. In assay [4], this compound gave an inhibition at 50 µM of 25%.
As to `Nc1nc(F)c2ccn([C@H]3CC[C@@H](CO)O3)c2n1`, testing at 100 µM in assay [1] gave an inhibition of 50%. In addition, in assay [4], the inhibition at 50 µM was 50%. The compound also registered an inhibition at 10 µM in assay [2] of 30%.
`O=c1[nH]c(=S)c(Cl)cn1[C@H]1CC[C@@H](CO)O1`: the MIC90 in assay [3] is 50 µg/mL (≈ 190 µM). For the same compound, at 100 µM the inhibition in assay [1] was 100%. This compound returned an inhibition at 50 µM in assay [4] of 50%.
`CCCCCCCCCCCCC#Cc1cn([C@H]2CC[C@@H](CO)O2)c(=O)[nH]c1=O` returned an MIC90 in assay [3] of 1 µg/mL (≈ 2.47 µM). Besides, in assay [1], testing at 100 µM gave an inhibition of 100%. In assay [4], this compound had an inhibition at 50 µM of 100%. In assay [2], the inhibition at 10 µM was 100%. This compound also registered an inhibition at 1 µM in assay [5] of 50%.
On to `Nc1nc(N)c2ncn([C@H]3CC[C@@H](CO)O3)c2n1`, for which the inhibition at 100 µM in assay [1] was found to be 50%. For the same compound, the inhibition at 50 µM in assay [4] turned out to be 50%.
For `Nc1nc(O)c2ncn([C@H]3CC[C@@H](CO)O3)c2n1`, the inhibition at 100 µM in assay [1] is 0%.
Same read-out and setting: then `Nc1ccn([C@@H]2CS[C@H](CO)O2)c(=O)n1` [LAMIVUDINE], with 0%.
For the compound `COc1nc(N)nc2c1ncn2[C@H]1CC[C@@H](CO)O1` [METACAVIR], the inhibition at 100 µM in assay [1] is 25%. For the same compound, the inhibition at 50 µM in assay [4] is 25%.
For `CO[C@H]1/C=C/O[C@@]2(C)Oc3c(C)c(O)c4c(O)c(c(/C=N/N5CCN(C)CC5)c(O)c4c3C2=O)NC(=O)/C(C)=C\C=C\[C@H](C)[C@H](O)[C@@H](C)[C@@H](O)[C@@H](C)[C@H](OC(C)=O)[C@@H]1C` [RIFAMPIN], in assay [3], the MIC90 worked out at 0.5 µg/mL (≈ 0.608 µM).
For `Nc1ccn([C@H]2CC[C@@H](CO)O2)c(=O)n1` [ZALCITABINE], in assay [1], the inhibition at 100 µM stood at 0%.

A word on the inhibition: it is the drop in the measured response relative to a control, in per cent. A low value points to little suppression. What is called MIC90 is an inhibitory concentration at the 90% level, which refers to growth in some studies and to a panel of isolates in others. Lower therefore signals higher susceptibility.
